Calls of active or inactive are those of the source. The rule behind the calls is not given here.
Test system: Rattus norvegicus
Test: Antihypertensive activity against phenol-induced hypertension in Sprague-Dawley rat assessed as decrease in mean arterial pressure at 300 µg/kg, iv in presence of capsaicin administered 4 days before compound administration
Settings: Artery

Row | SMILES | Activity
1 | Cc1ccc2[nH]c3c(c2c1)CCn1c-3nc2ccccc2c1=O | inactive

Test system: Aorta
Test: Vasodilative activity against […] Sprague-Dawley rat thoracic aorta assessed as reduction in phenylepinephrine-induced contraction
Format: functional, tissue-based
Settings: not given

Row | SMILES | EC50 [µM] | Emax [%]
2 | O=c1c2ccccc2nc2n1CCc1c-2[nH]c2ccccc12 [RUTAECARPINE] | 1.33 | 79.3
3 | O=c1c2cc(Cl)ccc2nc2n1CCc1c-2[nH]c2ccccc12 | 32.3 | 40.6
4 | O=c1c2ccccc2nc2n1CCc1c-2[nH]c2c(Cl)cc(Cl)c(Cl)c12 | 2.31 | 51
5 | c1ccc2c(c1)CN1CCc3c([nH]c4ccccc34)C1N2 (stereo not given) [RUTAECARPANE] | 20.1 | 63.6
6 | COc1ccc2[nH]c3c(c2c1)CCn1c-3nc2cccc(Cl)c2c1=O | 19.7 | 37.1
7 | CC(=O)c1ccc2[nH]c3c(c2c1)CCn1c-3nc2ccccc2c1=O | 3.25 | 68.2
8 | c1ccc2c(c1)CN1CCc3c([nH]c4ccccc34)C1=N2 [RUTAECARPENE] | 25.1 | 68.9
9 | COc1ccc2[nH]c3c(c2c1)CCn1c-3nc2ccc(Cl)cc2c1=O | 2.11 | 55.2
10 | CC12Oc3ccccc3C(=O)N1CCc1c2[nH]c2ccccc12 (stereo not given) | 1590 | 29.9
11 | O=c1c2ccccc2c(O)c2n1CCc1c-2[nH]c2ccccc12 | 15400 | 14.1
12 | COc1ccc2[nH]c3c(c2c1)CCn1c-3nc2ccc(Br)cc2c1=O | 9.4 | 40.3
13 | O=c1c2ccc(Cl)cc2nc2n1CCc1c-2[nH]c2ccccc12 | 21.1 | 36.6
14 | O=c1c2c(Cl)cccc2nc2n1CCc1c-2[nH]c2ccccc12 | 16.8 | 39.6
15 | COc1ccc2[nH]c3c(c2c1)CCn1c-3nc2ccccc2c1=O | 55.1 | 42.6
16 | Cc1cccc2c3c([nH]c12)-c1nc2ccccc2c(=O)n1CC3 | 2.99 | 47
17 | COc1ccc2[nH]c3c(c2c1)CCN1C(=O)c2ccccc2OC31 (stereo not given) | 63600 | 13
18 | COc1ccc2[nH]c3c(c2c1)CCn1c-3nc2cc(Cl)ccc2c1=O | 22.5 | 33.9
19 | COc1ccc2[nH]c3c(c2c1)CCN1C(=O)c2ccccc2OC31C (stereo not given) | 934 | 31.6
20 | O=C1c2ccccc2OC2c3[nH]c4ccccc4c3CCN12 (stereo not given) | 220 | 39.8
21 | Cc1ccc2[nH]c3c(c2c1)CCn1c-3nc2ccccc2c1=O | 1.24 | 85.1
22 | COc1ccc2[nH]c3c(c2c1)CCn1c-3c(O)c2ccccc2c1=O | 5700 | 13.2
23 | O=c1c2ccccc2nc2n1CCc1c-2[nH]c2c(Cl)cccc12 | 2.44 | 50.1
24 | O=C1c2ccccc2NC2(C(F)(F)F)c3[nH]c4ccccc4c3CCN12 (stereo not given) | 7.86 | 42.5
25 | COC(=O)C(Cc1c[nH]c2ccccc12)n1cnc2ccccc2c1=O (stereo not given) | 5460 | 15.5

Test system: Rattus norvegicus
Test: Antihypertensive activity against phenol-induced hypertension in iv dosed Sprague-Dawley rat assessed as decrease in mean arterial blood pressure
Format: functional, organism-based
Settings: Artery

Row | SMILES | Activity
26 | Cc1ccc2[nH]c3c(c2c1)CCn1c-3nc2ccccc2c1=O | Dose-dependent effect

Reference: ChEMBL document CHEMBL1152803, “Synthesis and vasodilator effects of rutaecarpine analogues which might be involved transient receptor potential vanilloid subfamily, member 1 (TRPV1)” (Bioorg Med Chem, 2009)
